# Reference: patent publication EP2951180B1, “2,6,7,8 SUBSTITUTED PURINES AS HDM2 INHIBITORS” (Merck Sharp & Dohme Corp., priority 2013, dated 2014)
# Biological target: T1, HDM2 (Homo sapiens, UniProt Q00987)
# T1 construct: Thioredoxin (N); made in house; host or cells: E. coli strain BL21(DE3)Rosetta
# Assay: HDM2 FRET assay (inhibition of binding of FITC labeled p53-pocket peptide to HDM2)
# Conditions: Table 20; read-out: FRET IC50
# Summary of the method: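 Displacement of FITC-p53 peptide (3 nM) from His-tagged HDM2 (0.5 nM) is measured by Tb-to-fluorescein FRET in PBS, 0.01% BSA, 0.01% Tween-20. IC50 values derive from 10-point curves.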
# T1 sequence (Q00987 17-125): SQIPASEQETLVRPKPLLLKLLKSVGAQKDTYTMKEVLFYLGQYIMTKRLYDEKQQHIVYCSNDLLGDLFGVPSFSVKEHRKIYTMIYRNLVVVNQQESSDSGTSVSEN
row,Compound,IC50
1,"C[C@@H](Nc1nc(C(=O)O)nc2nc(C(C)(C)c3ccccc3)n(C[C@H]3CC[C@H](C)CC3)c12)C1CCC1 [Example 20.2, 6-{[(1R)-1-cyclobutylethyl]amino}-7-[(trans-4-methylcyclohexyl)methyl]-8-(1-methyl-1-phenylethyl)-7H-purine-2-carboxylic acid]",3.45 nM
2,"C[C@@H](Nc1nc(C(=O)O)nc2nc(C3(c4ccccc4)CC3)n(Cc3ccc(C(F)(F)F)cc3)c12)C1CCC1 [Example 20.3, 6-{[(1R)-1-cyclobutylethyl]amino}-8-(1-phenylcyclopropyl)-7-[4-(trifluoromethyl)benzyl]-7H-purine-2-carboxylic acid]",8.57 nM
3,"C[C@@H](Nc1nc(C(=O)O)nc2nc(C3(c4ccccc4)CC3)n(C[C@H]3CC[C@H](C)CC3)c12)C1CCC1 [Example 20.4, 6-{[(1R)-1-cyclobutylethyl]amino}-7-[(trans-4-methylcyclohexyl)methyl]-8-(1-phenylcyclopropyl)-7H-purine-2-carboxylic acid]",2.58 nM
4,"C[C@@H](Nc1nc(-c2noc(=O)[nH]2)nc2nc(C3(c4ccccc4)CC3)n(C[C@H]3CC[C@H](C)CC3)c12)C1CCC1 [Example 20.5, 3-[6-{[(1R)-1-cyclobutylethyl]amino}-7-[(trans-4-methylcyclohexyl)methyl]-8-(1-phenylcyclopropyl)-7H-purin-2-yl]-1,2,4-oxadiazol-5(4H)-one]",4.98 nM
5,"C[C@@H](Nc1nc(C(=O)O)nc2nc(CC(C)(C)C)n(C[C@H]3CC[C@H](C)CC3)c12)C1CCC1 [Example 20.6, 6-{[(1R)-1-cyclobutylethyl]amino}-8-(2,2-dimethylpropyl)-7-[(trans-4-methylcyclohexyl)methyl]-7H-purine-2-carboxylic acid]",13.9 nM
6,"C[C@@H](Nc1nc(-c2noc(=O)[nH]2)nc2nc(CC(C)(C)C)n(C[C@H]3CC[C@H](C)CC3)c12)C1CCC1 [Example 20.7, 3-(6-{[(1R)-1-cyclobutylethyl]amino}-8-(2,2-dimethylpropyl)-7-[(trans-4-methylcyclohexyl)methyl]-7H-purin-2-yl)-1,2,4-oxadiazol-5(4H)-one]",20.9 nM
7,"C[C@@H](Nc1nc(-c2noc(=O)[nH]2)nc2nc(C3(c4ccccc4)CCC3)n(C[C@H]3CC[C@H](C)CC3)c12)C1CCC1 [Example 20.8, 3-[6-{[(1R)-1-cyclobutylethyl]amino}-7-[(trans-4-methylcyclohexyl)methyl]-8-(1-phenylcyclobutyl)-7H-purin-2-yl]-1,2,4-oxadiazol-5(4H)-one]",5.96 nM
8,"C[C@@H](Nc1nc(-c2n[nH]c(=O)n2C)nc2nc(C3(c4ccccc4)CCC3)n(C[C@H]3CC[C@H](C)CC3)c12)C1CCC1 [Example 20.9, 5-[6-{[(1R)-1-cyclobutylethyl]amino}-7-[(trans-4-methylcyclohexyl)methyl]-8-(1-phenylcyclobutyl)-7H-purin-2-yl]-4-methyl-2,4-dihydro-3H-1,2,4-triazol-3-one]",84.4 nM
9,"C[C@@H](Nc1nc(-c2n[nH]c(=O)o2)nc2nc(C3(c4ccccc4)CCC3)n(C[C@H]3CC[C@H](C)CC3)c12)C1CCC1 [Example 20.10, 5-[6-{[(1R)-1-cyclobutylethyl]amino}-7-[(trans-4-methylcyclohexyl)methyl]-8-(1-phenylcyclobutyl)-7H-purin-2-yl]-1,3,4-oxadiazol-2(3H)-one]",28.9 nM
10,"C[C@H]1CC[C@H](Cn2c(C3(c4ccccc4)CCC3)nc3nc(-c4noc(=O)[nH]4)nc(-c4cncc(Cl)c4)c32)CC1 [Example 20.11, 3-[6-(5-chloropyridin-3-yl)-7-[(trans-4-methylcyclohexyl)methyl]-8-(1-phenylcyclobutyl)-7H-purin-2-yl]-1,2,4-oxadiazol-5(4H)-one]",3.39 nM
11,"C[C@H]1CC[C@H](Cn2c(C3(c4ccccc4)CCC3)nc3nc(-c4n[nH]c(=O)o4)nc(-c4cncc(Cl)c4)c32)CC1 [Example 20.12, 5-[6-(5-chloropyridin-3-yl)-7-[(trans-4-methylcyclohexyl)methyl]-8-(1-phenylcyclobutyl)-7H-purin-2-yl]-1,3,4-oxadiazol-2(3H)-one]",9.59 nM
